Legend:
Assay type in all cases: physicochemical
[1] = HPLC chemical stability after storage at various conditions; settings: for Area Percent at 248 nm T1 week: 1 week; for Area Percent at 248 nm T2 week: 2 weeks; for Area Percent at 248 nm T4 week: 4 weeks; for Area Percent at 248 nm T8 week: 8 weeks
Procedure: High-performance Liquid Chromatography (HPLC) analysis was performed to determine the chemical stability of Forms A, B, and C of Compound A after storage at various conditions, using an Agilent 1100 system with DAD. Chemical stability was estimated by measuring and comparing the area percent of the material peak at various time points. For High-performance Liquid Chromatography (HPLC) analysis, an Agilent 1100 system with DAD was used.

[2] = XRPD physical form stability under storage conditions; settings: up to eight weeks
Procedure: (§1) XRPD analysis is carried out using a diffractometer running in reflection mode. The 2-theta position is calibrated against a standard before running the experiment. XRPD analysis was carried out on a Panalytical X'Pert^3 Powder XRPD on a Si zero-background holder, scanning the samples between 3 and 40° 2-theta. The 2-theta position was calibrated against Panalytical 640 Si powder standard. The test material was gently compressed on a glass disc inserted into a sample holder. The sample was then loaded into a Panalytical X'Pert^3 Powder XRPD diffractometer running in reflection mode and analyzed, using the following experimental conditions.

[3] = Dynamic Vapor Sorption (DVS)
Procedure: Dynamic Vapor Sorption (DVS) was measured using a SMS (Surface Measurement Systems) DVS Intrinsic. The test was performed at 25° C. while the RH was varied from 0% to 95% at 10% increments in the range of 0% RH-90% RH and at 5% increment up to 95% RH. The change in mass after each increase or decrease in the RH was recorded as a percentage of the original mass of the starting material. Dynamic Vapor Sorption (DVS) was measured using a SMS (Surface Measurement Systems) DVS Intrinsic, using the following parameters: [table]

Solubility estimation = settings: thermodynamic from solid
Procedure: Solubility of the solid forms of the present application in a variety of solvents is measured. Solvent is added to a sample until the total volume reaches 100 μL, followed by 100 μL per step until the sample is dissolved or the concentration is less than <1.0 mg/mL. The approximate solubility is then calculated.
Solubility of the solid forms of the present application in a variety of solvents was measured according to the following procedures. A sample (˜2 mg) was weighed into a 4-mL glass vial. Solvent was added into the vial stepwise at 50 μL per step until the total volume was 100 μL, followed by 100 μL per step until concentration was less than 1.0 mg/mL. The solutions were mixed thoroughly after each addition by sonication for 2 minutes and vortexing for 1 minute. The addition of solvent was complete if the sample was dissolved or the concentration was <1.0 mg/mL. The volumes of solvent (V1 and V2) were recorded, and approximate solubility was calculated.

[4] = XRPD after air-drying or vacuum drying
Procedure: as §1, with “XRPD” for “XRPD analysis is carried out using a diffractometer running in reflection mode. The 2-theta position is calibrated against a standard before running the experiment. XRPD”

## O=C(Cc1ccc(-c2ccc(OCCN3CCOCC3)cc2)cn1)NCc1ccccc1 [Form A, 2-(5-(4-(2-morpholinoethoxy)phenyl)pyridin-2-yl)-N-benzylacetamide]
[1]; 25° C./60% RH
  Area Percent at 248 nm T1 week: 99.8 Area Percent
  Area Percent at 248 nm T2 week: 99.8 Area Percent
  Area Percent at 248 nm T4 week: 99.8 Area Percent
  Area Percent at 248 nm T8 week: 99.8 Area Percent
  Area Percent at 248 nm T0: 99.8 Area Percent
[1]; 40° C./75% RH
  Area Percent at 248 nm T1 week: 99.8 Area Percent
  Area Percent at 248 nm T2 week: 99.8 Area Percent
  Area Percent at 248 nm T4 week: 99.8 Area Percent
  Area Percent at 248 nm T8 week: 99.8 Area Percent
  Area Percent at 248 nm T0: 99.8 Area Percent
[1]; 55° C./75% RH
  Area Percent at 248 nm T1 week: 99.8 Area Percent
  Area Percent at 248 nm T2 week: 99.8 Area Percent
  Area Percent at 248 nm T4 week: 99.7 Area Percent
  Area Percent at 248 nm T8 week: 99.8 Area Percent
  Area Percent at 248 nm T0: 99.8 Area Percent
[1]; Ambient
  Area Percent at 248 nm T1 week: 99.8 Area Percent
  Area Percent at 248 nm T2 week: 99.7 Area Percent
  Area Percent at 248 nm T4 week: 99.7 Area Percent
  Area Percent at 248 nm T8 week: 99.7 Area Percent
  Area Percent at 248 nm T0: 99.8 Area Percent
[1]; selected storage conditions, time points over eight-week study
  change in HPLC area percent purity (LCAP): no significant decrease
[2]; 25° C./60% RH
  change in physical form (XRPD): no change in physical form
[2]; 40° C./75% RH
  change in physical form (XRPD): no change in physical form
[2]; 55° C./75% RH
  change in physical form (XRPD): no change in physical form
[2]; ambient conditions
  change in physical form (XRPD): no change in physical form
[3]
  hygroscopicity: non-hygroscopic
[3]; 25° C. and RH up to 95%
  XRPD pattern after exposure to DVS experiment: does not change
[3]; between 0 and 80% RH at between 25° C. and 45° C.
  water uptake: less than 0.2 % w/w
Solubility estimation; aqueous
  solubility thermodynamic: < 1.5 mg/mL
Solubility estimation; water, aqueous solution (e.g., water), room temperature, read-out: aqueous solubility (dissolved completely)
  solubility: > 20 mg/mL
[4]
  crystallinity after drying (XRPD): no loss of crystallinity

Reference: patent US11230527B2, “Solid forms of 2-(5-(4-(2-morpholinoethoxy)phenyl)pyridin-2-yl)-n- benzylacetamide” (Athenex HK Innovative Limited, priority 2017, dated 2022)
